Measurements: patent publication US11911346B2, “Orally administrated therapeutic for treating mild cognitive impairment (MCI) and improving human cognitive function” (BrainCare LLC, priority 2021, dated 2024)

System: cognitive function of participants with Subjective Cognitive Decline
Experiment: Cognitive Failures Questionnaire (CFQ), 8-week randomized study of one or two BCP capsules daily
Type: in vivo, human
Settings: one capsule daily (90 mg BCP)

C=C1CC/C=C(\C)CC[C@@H]2[C@@H]1CC2(C)C [BCP, beta-caryophyllene]
CFQ % better vs. baseline: Do you bump into people? (week 4): 29% better
CFQ % better vs. baseline: Do you daydream when you ought to be listening to something? (week 4): 16% better
CFQ % better vs. baseline: Do you fail to hear people speaking to you when you are doing something? (week 4): 15% better
CFQ % better vs. baseline: Do you fail to notice signposts on the road? (week 4): 17% better
CFQ % better vs. baseline: Do you fail to see what you want in a supermarket (although it's there)? (week 4): 14% better
CFQ % better vs. baseline: Do you find that you drop things? (week 4): 14% better
CFQ % better vs. baseline: Do you find you accidentally misplace things like placing the fruit in the cupboard and the bowl in the refrigerator? (week 4): 17% better
CFQ % better vs. baseline: Do you find you can't quite remember something although it's “on the tip of your tongue”? (week 4): 12% better
CFQ % better vs. baseline: Do you find you can't think of anything to say? (week 4): 15% better
CFQ % better vs. baseline: Do you find you forget people's names? (week 4): 12% better
CFQ % better vs. baseline: Do you find you forget what you came to the store to buy? (week 4): 12% better
CFQ % better vs. baseline: Do you find you forget whether you've turned off a light or locked the door? (week 4): 11% better
CFQ % better vs. baseline: Do you find you forget which way to turn on a road you know well but rarely use? (week 4): 27% better
CFQ % better vs. baseline: Do you find yourself suddenly wondering if you used a word correctly? (week 4): 14% better
CFQ % better vs. baseline: Do you have trouble making up your mind? (week 4): 13% better
CFQ % better vs. baseline: Do you lose track of paying bills? (week 4): 23% better
CFQ % better vs. baseline: Do you read something and find you haven't been thinking about it and must read it again? (week 4): 11% better
CFQ % better vs. baseline: Do you say something and realize afterwards that it might be taken as an insult? (week 4): 28% better
CFQ % worse vs. baseline: Do you confuse left and right when giving people directions? (week 4): 17% worse
CFQ % worse vs. baseline: Do you find that you forget appointments? (week 4): 25% worse
CFQ change vs. baseline: Do you fail to listen to people's names when you are meeting them for the first time? (week 4): No change
CFQ change vs. baseline: Do you lose your temper and regret it? (week 4): No change
CFQ change vs. baseline: Do you start doing one thing at home and get distracted and do something else (unintentionally)? (week 4): no change
CFQ score: Do you bump into people? (week 4, lower is better): 0.5 ± 0.6
CFQ score: Do you confuse left and right when giving people directions? (week 4, lower is better): 0.7 ± 1.0
CFQ score: Do you daydream when you ought to be listening to something? (week 4, lower is better): 1.6 ± 0.8
CFQ score: Do you fail to hear people speaking to you when you are doing something? (week 4, lower is better): 1.7 ± 0.9
CFQ score: Do you fail to listen to people's names when you are meeting them for the first time? (week 4, lower is better): 2.2 ± 1.1
CFQ score: Do you fail to notice signposts on the road? (week 4, lower is better): 1.0 ± 0.7
CFQ score: Do you fail to see what you want in a supermarket (although it's there)? (week 4, lower is better): 1.2 ± 0.7
CFQ score: Do you find that you drop things? (week 4, lower is better): 1.2 ± 0.9
CFQ score: Do you find that you forget appointments? (week 4, lower is better): 1.0 ± 0.7
CFQ score: Do you find you accidentally misplace things like placing the fruit in the cupboard and the bowl in the refrigerator? (week 4, lower is better): 1.0 ± 0.8
CFQ score: Do you find you can't quite remember something although it's “on the tip of your tongue”? (week 4, lower is better): 2.3 ± 0.8
CFQ score: Do you find you can't think of anything to say? (week 4, lower is better): 1.1 ± 0.8
CFQ score: Do you find you forget people's names? (week 4, lower is better): 2.2 ± 1.0
CFQ score: Do you find you forget what you came to the store to buy? (week 4, lower is better): 1.5 ± 0.8
CFQ score: Do you find you forget whether you've turned off a light or locked the door? (week 4, lower is better): 1.6 ± 0.8
CFQ score: Do you find you forget which way to turn on a road you know well but rarely use? (week 4, lower is better): 0.8 ± 0.7
CFQ score: Do you find you forget why you went from one place of the house to the other? (week 4, lower is better): 1.7 ± 0.6
CFQ score: Do you find yourself suddenly wondering if you used a word correctly? (week 4, lower is better): 1.2 ± 0.8
CFQ score: Do you forget where you put something like a newspaper or a book? (week 4, lower is better): 1.8 ± 0.9
CFQ score: Do you have trouble making up your mind? (week 4, lower is better): 1.3 ± 0.7
CFQ score: Do you lose track of paying bills? (week 4, lower is better): 1.0 ± 0.8
CFQ score: Do you lose your temper and regret it? (week 4, lower is better): 1.1 ± 0.7
CFQ score: Do you read something and find you haven't been thinking about it and must read it again? (week 4, lower is better): 1.7 ± 0.9
CFQ score: Do you say something and realize afterwards that it might be taken as an insult? (week 4, lower is better): 1.1 ± 1.0
CFQ score: Do you start doing one thing at home and get distracted and do something else (unintentionally)? (week 4, lower is better): 2.3 ± 0.8
Distractibility summed sub-score of CFQ (week 4, lower is better): 11 ± 4
False triggering summed sub-score of CFQ (week 4, lower is better): 9 ± 4
Forgetfulness summed sub-score of CFQ (week 4, lower is better): 14 ± 5
Total CFQ summed sub-score (week 4, lower is better): 34 ± 10
CFQ % better vs. baseline: Do you daydream when you ought to be listening to something? (week 8): 11% better
CFQ % better vs. baseline: Do you fail to hear people speaking to you when you are doing something? (week 8): 20% better
CFQ % better vs. baseline: Do you fail to listen to people's names when you are meeting them for the first time? (week 8): 14% better
CFQ % better vs. baseline: Do you fail to notice signposts on the road? (week 8): 17% better
CFQ % better vs. baseline: Do you fail to see what you want in a supermarket (although it's there)? (week 8): 7% better
CFQ % better vs. baseline: Do you find that you drop things? (week 8): 14% better
CFQ % better vs. baseline: Do you find you accidentally misplace things like placing the fruit in the cupboard and the bowl in the refrigerator? (week 8): 25% better
CFQ % better vs. baseline: Do you find you forget people's names? (week 8): 12% better
